Measurements from US10500207B2, “Compounds for the treatment of diseases associated with amyloid or amyloid-like proteins” (AC Immune SA, priority 2010, dated 2019).

Molecular target: Aβ1-42 peptide (Homo sapiens, UniProt P05067)
Experiment: Thioflavin T spectrofluorescence assay (ThT-assay): inhibition of Aβ1-42 aggregation (% inhibition at 330 μM; IC50 from dilution series)
Details: 24 h, read-out: Inhibition at 330 μM [%], ThT assay; 330 μM small molecule, 33 μM Aβ1-42 (10:1), 24 hrs at 37° C.; mean ± standard deviation of two independent experiments
Description: Aβ1-42 lyophilized powder (Bachem) was reconstituted in hexafluoroisopropanol (HFIP) to 1 mM. The peptide solution was sonicated for 15 min at room temperature, agitated overnight, and aliquots were made into non-siliconized microcentrifuge tubes. The HFIP was then evaporated under a stream of argon. The resulting peptide film was dried under vacuum for 10 min, tightly sealed and stored at −80° C. until used.
A positive control without a small molecule was prepared to measure maximum RFU. A negative control without Aβ1-42 was prepared for each small molecule. […] The solutions were then incubated for 24 hrs at 37° C., and the spectrofluorescence (relative fluorescence units; RFU) were read in six replicates in black 384-well assay plates (Perkin-Elmer) on a Perkin-Elmer FluoroCount spectrofluorometer. The inhibition of aggregation is expressed as mean % inhibition±1 standard deviation (SD) according to the following equation:
Racemic compounds and their enantiomers were tested for their ability to inhibit amyloid peptide aggregation using the ThT assay. To determine the IC50, the following dilutions of the compounds were used in the ThT assay described above:

Chain of Aβ1-42 peptide (P05067 672-713 limits assumed): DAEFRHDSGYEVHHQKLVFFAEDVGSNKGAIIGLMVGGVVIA

Row | inhibition at 330 µM [%] | Compound
1 | 94 ± 0.8 | CNC1CCc2c(c3ccc(Nc4ccc(F)c(OC)c4)nc3n2C)C1 (stereo not drawn) [Example 115]
2 | 90.5 ± 0.5 | CN1CCC(c2c[nH]c3cc(Nc4cc(F)c(F)c(F)c4)ccc23)CC1 [Example 113]
3 | 91.5 ± 2.5 | COC1CCc2[nH]c3cc(Nc4ccc5c(c4)OCCO5)ccc3c2C1 (stereo not drawn) [Example 127]
4 | 55.2 ± 6 | c1ccc(Nc2ccc3c(c2)OCO3)cc1 [Example 185]
5 | 75.6 ± 13.4 | Cn1c2c(c3ccc(Nc4ccc5c(c4)OCCO5)cc31)CN(CCCCS(C)(=O)=O)CC2 [Example 207]
6 | 42.3 ± 3.1 | Cn1c2c(c3cc(Nc4ccc(F)nc4)ccc31)CS(=O)(=O)CC2 [Example 183]
7 | 89.3 ± 10.6 | COc1ccc(Nc2ccc3c(C4CCN(C)CC4)cn(C)c3c2)cc1OC [Example 104]
8 | 66.5 ± 2.4 | Fc1ccc(Nc2ccc3c(c2)OCO3)cc1F [Example 186]
9 | 89.7 ± 2.4 | CN1CCC(c2c[nH]c3cc(Nc4ccc(F)cc4)ccc23)CC1 [Example 195]
10 | 75.5 ± 7.8 | Cn1cnc2ccc(Nc3ccc4c5c(n(C)c4n3)CCC5)cc21 [Example 175]
11 | 93.2 ± 3.7 | COc1ccc(Nc2ccc3c(C4CCNCC4)cn(C)c3n2)cc1F [Example 103]
12 | 88.6 ± 1.2 | Cn1c2c(c3ccc(Nc4ccc(F)c(F)c4)nc31)CC(OCCF)CC2 (stereo not drawn) [Example 128]
13 | 85 ± 3.3 | Cn1c2c(c3cc(Nc4ccc(F)c(F)c4)ccc31)CN(CCCCS(C)(=O)=O)CC2 [Example 208]
14 | 98.9 ± 0.5 | CNC1CCc2[nH]c3ccc(Nc4ccc5c(C6CCNCC6)cn(C)c5c4)cc3c2C1 (stereo not drawn) [Example 108]
15 | 94.4 ± 0.1 | COc1ccc(Nc2ccc3c(C4CCN(C)CC4)c[nH]c3c2)cc1F [Example 99]
16 | 87.5 ± 1.4 | COCCNC1CCc2c(c3ccc(Nc4ccc(F)c(F)c4)nc3n2C)C1 (stereo not drawn) [Example 141]
17 | 94.5 ± 3.1 | CN1CCC(c2c[nH]c3cc(Nc4ccc(N5CCOCC5)cc4)ccc23)CC1 [Example 162]
18 | 6.6 ± 4.3 | Cn1cnc2ccc(Nc3ccc4c(c3)c3c(n4C)CCS(=O)(=O)C3)cc21 [Example 181]
19 | 92.1 ± 0.3 | COC1CCc2c(c3ccc(Nc4ccc5c(c4)OCCO5)nc3n2C)C1 (stereo not drawn) [Example 198]
20 | 91.4 ± 0.2 | COc1ccc(Nc2ccc3c4c(n(C)c3n2)CCC(OC(C)C)C4)cc1OC (stereo not drawn) [Example 131]

The next lines start with the compound.

Row | Compound | inhibition at 330 µM [%]
21 | Cn1cc(C2CCNCC2)c2ccc(Nc3ccc(F)c(F)c3)nc21 [Example 67] | 87.8 ± 4.2
22 | CNC1CCc2[nH]c3nc(Nc4ccc(C(F)(F)F)nc4)ccc3c2C1 (stereo not drawn) [Example 25] | 63.4 ± 9
23 | c1nc2c(C3CCNCC3)c[nH]c2cc1Nc1ccc2c3c([nH]c2n1)CCCC3 [Example 35] | 97.7 ± 0.3
24 | Fc1ccc(Nc2ccc3[nH]cc(C4CCNCC4)c3c2)cc1F [Example 55] | 75.8 ± 0.8
25 | c1cc(Nc2ccc3c(C4CCNCC4)c[nH]c3c2)cc(N2CCOCC2)c1 [Example 62] | 99.7 ± 0.3
26 | c1cc2cc(Nc3ccc4cc[nH]c4c3)ccc2[nH]1 [Example 16] | 93.7 ± 2.1
27 | CNC1(C)CCc2c(c3ccc(Nc4ccc(OC)c(OC)c4)nc3n2C)C1 (stereo not drawn) [Example 90] | 75.1 ± 0.3
28 | CNC1CCc2c(c3ccc(Nc4cc(F)cc(F)c4)nc3n2C)C1 (stereo not drawn) [Example 29] | 85.4 ± 0.4
29 | CN1CCC(c2c[nH]c3cc(N4CCc5ccccc5C4)ccc23)CC1 [Example 23] | 97.8 ± 1.5
30 | c1cc2c(C3CCNCC3)c[nH]c2cc1Nc1ccc2c(C3CCNCC3)c[nH]c2c1 [Example 63] | 91.5 ± 2.5
31 | CNC1CCc2c(c3ccc(Nc4cc(F)c(F)cc4F)nc3n2C)C1 (stereo not drawn) [Example 28] | 91.4 ± 2.9
32 | c1nc2[nH]cc(C3CCNCC3)c2cc1Nc1ccc2c3c([nH]c2n1)CCC3 [Example 51] | 95.5 ± 1
33 | CNC1CCc2c(c3ccc(Nc4ccc(OC)c(OC)c4)nc3n2C)C1 (stereo not drawn) [Example 95] | 89.9 ± 6.1
34 | c1ccc(CCNc2ccc3cc[nH]c3n2)nc1 [Example 1] | 69.5 ± 4.5
35 | CN1CCC(c2c[nH]c3cc(Nc4ccc5c(c4)OCC(=O)N5)ccc23)CC1 [Example 87] | 80.8 ± 0.5
36 | CN1CCC(c2c[nH]c3cc(Nc4cc(F)c(F)cc4F)ccc23)CC1 [Example 79] | 91 ± 4.2
37 | CNC1CCc2c(c3ccc(Nc4ccc(N5CCOCC5)cc4)nc3n2C)C1 (racemic) [Example 42] | 96.2 ± 2.8

Same assay, conditions: IC50 μM 1st assay, ThT assay, dilution series 330 μM to 0.08 μM; 1st assay

Row | IC50 [µM] | Compound
38 | 63 | CNC1CCc2c(c3ccc(Nc4ccc(N5CCOCC5)cc4)nc3n2C)C1 (racemic) [Example 42]

Same assay, conditions: IC50 μM 2nd assay, ThT assay, dilution series 330 μM to 0.08 μM; 2nd assay

Row | IC50 [µM] | Compound
39 | 112 | CNC1CCc2c(c3ccc(Nc4ccc(N5CCOCC5)cc4)nc3n2C)C1 (racemic) [Example 42]
